Source: US8921398B2 (Boehringer Ingelheim International GmbH, priority 2011, dated 2014)

Molecular target: T1, human GPR119 (Homo sapiens, UniProt Q8TDV5)
T1 construct: expression vector for human GPR119 cDNA (Acc. No. NP_848566); expressed in transfected cells
T1 sequence (Q8TDV5 1-335): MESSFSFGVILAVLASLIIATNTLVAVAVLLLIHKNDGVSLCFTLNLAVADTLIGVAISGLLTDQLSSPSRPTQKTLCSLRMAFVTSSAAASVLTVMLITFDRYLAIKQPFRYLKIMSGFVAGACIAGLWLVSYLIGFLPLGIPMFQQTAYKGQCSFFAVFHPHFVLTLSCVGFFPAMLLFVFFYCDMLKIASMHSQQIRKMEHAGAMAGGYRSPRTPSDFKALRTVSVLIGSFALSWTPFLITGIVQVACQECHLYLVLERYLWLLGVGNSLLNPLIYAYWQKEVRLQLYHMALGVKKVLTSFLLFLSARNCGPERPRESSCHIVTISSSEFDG
Assay: AlphaScreen cAMP assay in MIN6 cells stably transfected with human GPR119
Format: cell-based
Details: Min-6/hGPR119 cells, 45 minutes incubation at room temperature
Description: The compounds of formula I according to the invention modulate the activity of the G-protein-coupled receptor GPR119. The effect of the compounds on the activation of GPR119 and on the stimulation of intracellular cAMP concentration is determined using the AlphaScreen cAMP Assay Kit (Cat.No.#6760625R) made by PerkinElmer.
MIN6 cells [Miyazaki J et al. Endocrinology. 1990 July; 127(1):126-32] are stably transfected with an expression vector for human GPR119 cDNA (Acc. No. NP_848566). Min-6/hGPR119 cells are cultured in DMEM, 10% FBS, 50 μM β-mercaptoethanol, 0.3 mg/mL Geniticin, 2 mM GlutaMAX at 37° C. 5% CO2. For the assay, the cells are seeded in Optiplates (white, 384-well, 160W-barcoded, TC, sterile with lid, Cat.No.#6007688 (Perkin Elmer); 10000 cells/well; 50 μl). The plates covered with lids are then incubated for 24 hours at 37° C./5% CO2. After the medium is aspirated from the wells completely, 10 μl of the test compound are added, the compounds are diluted using stimulating buffer (140 mM NaCl, 3.6 mM KCl, 0.5 mM NaH2PO4, 0.5 mM MgSO4, 1.5 mM CaCl2, 10 mM Hepes, 5 mM NaHCO3; pH 7.4. 0.5 mM IBMX and 0.1% BSA, the final DMSO concentration is 1%). After 45 minutes incubation at room temperature (approx. 20° C.), the cAMP concentrations are determined using the AlphaScreen cAMP Assay Kit (Cat.No.#6760625R from PerkinElmer).

Structure (SMILES) | EC50 [nM]
Cc1cnc(N2CCC(N(C(=O)c3ccc(-c4cnco4)nc3)C3CC3)CC2)nc1 [Example 41, N-Cyclopropyl-N-[1-(5-methyl-pyrimidin-2-yl)-piperidin-4-yl]-6-oxazol-5-yl-nicotinamide] | 159
Cc1cnc(N2CCC(N(C(=O)c3ccc(-c4cnco4)nc3)C3CC3)CC2)cn1 [Example 42, N-Cyclopropyl-N-[1-(5-methyl-pyrazin-2-yl)-piperidin-4-yl]-6-oxazol-5-yl-nicotinamide] | 231
